According to ChEMBL document CHEMBL4007490, “New hydrazine and hydrazide quinoxaline 1,4-di-N-oxide derivatives: In silico ADMET, antiplasmodial and antileishmanial activity” (Bioorg Med Chem Lett, 2017):

Legend:
[1] = Cytotoxicity against human HepG2A16 cells after 48 hrs by MTT assay; type: cell-based
Plasmodium falciparum [2] = assay: Antiplasmodial activity against chloroquine-sensitive/sulfadoxine-resistant Plasmodium falciparum 3D7 by [3H]-hypoxanthine incorporation assay; type: functional
[3] = Selectivity index, ratio of CC50 for human HepG2A16 cells to IC50 for axenic amastigote form of Leishmania infantum MHOM/MA/67/ITMAP-263; type: toxicity; settings: read-out: Ratio CC50/IC50
[4] = Selectivity index, ratio of CC50 for human HepG2A16 cells to IC50 for chloroquine/cycloguanil-resistant Plasmodium falciparum FCR3; type: toxicity; settings: read-out: Ratio CC50/IC50
Leishmania infantum = assay: Antileishmanial activity against axenic amastigote form of Leishmania infantum MHOM/MA/67/ITMAP-263 assessed as parasite growth inhibition after 72 hrs by MTT assay; type: functional; settings: MHOM/MA/67/ITMAP-263, 72 h
Plasmodium falciparum [5] = assay: Antiplasmodial activity against chloroquine/cycloguanil-resistant Plasmodium falciparum FCR3 by [3H]-hypoxanthine incorporation assay; type: functional; settings: FCR-3/Gambia

Compound `Cc1c(C)[n+]([O-])c2cc(Cl)ccc2[n+]1[O-]` has a CC50 at 48 h [1] of 228 µM, an IC50 (Plasmodium falciparum [2]) of over 100 µM and a selectivity ratio [3] of under 2.28. It also gave a selectivity ratio [4] of under 2.28, an IC50 (Leishmania infantum) of over 100 µM and an IC50 (Plasmodium falciparum [5]) of over 100 µM.

With `Cc1c(/C=N/Nc2ccc(C(=O)O)cc2)[n+]([O-])c2ccccc2[n+]1[O-]` the CC50 at 48 h [1] was 373 µM, the IC50 (Plasmodium falciparum [2]) was over 100 µM and the selectivity ratio [3] was under 3.72. It also gave a selectivity ratio [4] of under 3.72, an IC50 (Leishmania infantum) of over 100 µM and an IC50 (Plasmodium falciparum [5]) of over 100 µM.

`CC(=O)N/N=C/c1c(C)[n+]([O-])c2ccccc2[n+]1[O-]` showed a CC50 at 48 h [1] of 87.2 µM, an IC50 (Plasmodium falciparum [2]) of over 100 µM and a selectivity ratio [3] of under 0.87. The selectivity ratio [4] was under 0.87, the IC50 (Leishmania infantum) was over 100 µM and the IC50 (Plasmodium falciparum [5]) was over 100 µM.

`COc1ccc2c(c1)[n+]([O-])c(/C=N/Nc1ccnc3cc(Cl)ccc13)c(C)[n+]2[O-]` showed a CC50 at 48 h [1] of over 244 µM, an IC50 (Plasmodium falciparum [2]) of 1.4 µM and a selectivity ratio [4] of over 95.3. The IC50 (Leishmania infantum) was over 100 µM and the IC50 (Plasmodium falciparum [5]) was 2.56 µM.

In the case of `Cc1c(/C=N/NC(=O)c2ccc(Cl)cc2)[n+]([O-])c2ccccc2[n+]1[O-]`, the CC50 at 48 h [1] is reported as 28.3 µM, the IC50 (Plasmodium falciparum [2]) is reported as 54.9 µM and the selectivity ratio [3] is reported as 0.54. The selectivity ratio [4] was 0.81, the IC50 (Leishmania infantum) was 52.3 µM and the IC50 (Plasmodium falciparum [5]) was 34.8 µM.

For `COc1ccc2c(c1)[n+]([O-])c(/C=N/Nc1c(Cl)cc(Cl)cc1Cl)c(C)[n+]2[O-]`, the CC50 at 48 h [1] was 209 µM, the IC50 (Plasmodium falciparum [2]) was over 100 µM and the selectivity ratio [3] was under 2.08. It also gave a selectivity ratio [4] of under 2.09, an IC50 (Leishmania infantum) of over 100 µM and an IC50 (Plasmodium falciparum [5]) of over 100 µM.

With `Cc1c(/C=N/Nc2ccccc2)[n+]([O-])c2ccccc2[n+]1[O-]` the CC50 at 48 h [1] was 35.4 µM, the IC50 (Plasmodium falciparum [2]) was over 100 µM and the selectivity ratio [3] was under 0.35. It also gave a selectivity ratio [4] of under 0.35, an IC50 (Leishmania infantum) of over 100 µM and an IC50 (Plasmodium falciparum [5]) of over 100 µM.

Work on `Cc1c(C(F)(F)F)[n+]([O-])c2ccccc2[n+]1[O-]` yielded a CC50 at 48 h [1] of 1.8 µM, an IC50 (Plasmodium falciparum [2]) of 7.9 µM and a selectivity ratio [3] of 0.05. For the same compound, the selectivity ratio [4] was 0.42, the IC50 (Leishmania infantum) was 30.5 µM and the IC50 (Plasmodium falciparum [5]) was 4.2 µM.

For `Cc1c(/C=N/Nc2c(Cl)cc(Cl)cc2Cl)[n+]([O-])c2cc(Cl)ccc2[n+]1[O-]`, the CC50 at 48 h [1] was 12.2 µM, the IC50 (Plasmodium falciparum [2]) was over 100 µM and the selectivity ratio [3] was under 0.12. It also gave a selectivity ratio [4] of 0.2, an IC50 (Leishmania infantum) of over 100 µM and an IC50 (Plasmodium falciparum [5]) of 61.1 µM.

Compound `COc1ccc(C(=O)N/N=C/c2c(C)[n+]([O-])c3ccccc3[n+]2[O-])cc1` has a CC50 at 48 h [1] of 66.6 µM, an IC50 (Plasmodium falciparum [2]) of 27.8 µM and a selectivity ratio [3] of under 0.66. The selectivity ratio [4] was 2.22, the IC50 (Leishmania infantum) was over 100 µM and the IC50 (Plasmodium falciparum [5]) was 30 µM.

In the case of `Cc1c(/C=N/Nc2c(Cl)cc(Cl)cc2Cl)[n+]([O-])c2ccccc2[n+]1[O-]`, the CC50 at 48 h [1] is reported as 124 µM, the IC50 (Plasmodium falciparum [2]) is reported as over 100 µM and the selectivity ratio [3] is reported as under 1.24. For the same compound, the selectivity ratio [4] was under 1.24, the IC50 (Leishmania infantum) was over 100 µM and the IC50 (Plasmodium falciparum [5]) was over 100 µM.

Work on `COc1ccc2c(c1)[n+]([O-])c(C)c(C)[n+]2[O-]` yielded a CC50 at 48 h [1] of 744 µM, an IC50 (Plasmodium falciparum [2]) of over 100 µM and a selectivity ratio [3] of under 7.44. For the same compound, the selectivity ratio [4] was under 7.44, the IC50 (Leishmania infantum) was over 100 µM and the IC50 (Plasmodium falciparum [5]) was over 100 µM.

Compound `Cc1c(/C=N/Nc2cccc(Cl)c2)[n+]([O-])c2ccccc2[n+]1[O-]` has a CC50 at 48 h [1] of 47.3 µM, an IC50 (Plasmodium falciparum [2]) of over 100 µM and a selectivity ratio [3] of under 0.47. It also gave a selectivity ratio [4] of under 0.47, an IC50 (Leishmania infantum) of over 100 µM and an IC50 (Plasmodium falciparum [5]) of over 100 µM.

Compound `Cc1c(/C=N/NC(=O)c2ccncc2)[n+]([O-])c2ccccc2[n+]1[O-]` has a CC50 at 48 h [1] of 90.9 µM, an IC50 (Plasmodium falciparum [2]) of over 100 µM and a selectivity ratio [3] of under 0.9. It also gave a selectivity ratio [4] of under 0.9, an IC50 (Leishmania infantum) of over 100 µM and an IC50 (Plasmodium falciparum [5]) of over 100 µM.

Compound `Cc1c(/C=N/Nc2ccc(Cl)c(Cl)c2)[n+]([O-])c2ccccc2[n+]1[O-]` has a CC50 at 48 h [1] of 551 µM, an IC50 (Plasmodium falciparum [2]) of 76.7 µM and a selectivity ratio [3] of under 5.5. It also gave a selectivity ratio [4] of 6.32, an IC50 (Leishmania infantum) of over 100 µM and an IC50 (Plasmodium falciparum [5]) of 87.1 µM.

In the case of `Cc1ccc(S(=O)(=O)N/N=C/c2c(C)[n+]([O-])c3ccccc3[n+]2[O-])cc1`, the CC50 at 48 h [1] is reported as 241 µM, the IC50 (Plasmodium falciparum [2]) is reported as 85.3 µM and the selectivity ratio [3] is reported as 4.51. For the same compound, the selectivity ratio [4] was under 2.41, the IC50 (Leishmania infantum) was 53.4 µM and the IC50 (Plasmodium falciparum [5]) was over 100 µM.

For `C[C@@H]1[C@H](O)[C@@H](C)/C=C/C=C/C=C/C=C/C=C/C=C/C=C/[C@H](O[C@@H]2O[C@H](C)[C@@H](O)[C@H](N)[C@@H]2O)C[C@@H]2O[C@](O)(C[C@@H](O)C[C@@H](O)[C@H](O)CC[C@@H](O)C[C@@H](O)CC(=O)O[C@H]1C)C[C@H](O)[C@H]2C(=O)O` [AMPHOTERICIN B], the IC50 (Leishmania infantum) was 0.05 µM.

Work on `Cc1c(C)[n+]([O-])c2ccccc2[n+]1[O-]` yielded a CC50 at 48 h [1] of 322 µM, an IC50 (Plasmodium falciparum [2]) of over 100 µM and a selectivity ratio [3] of under 3.21. The selectivity ratio [4] was under 3.21, the IC50 (Leishmania infantum) was over 100 µM and the IC50 (Plasmodium falciparum [5]) was over 100 µM.

Compound `Cc1c(/C=N/Nc2ccnc3cc(Cl)ccc23)[n+]([O-])c2cc(Cl)ccc2[n+]1[O-]` has a CC50 at 48 h [1] of over 241 µM, an IC50 (Plasmodium falciparum [2]) of 0.24 µM and a selectivity ratio [4] of over 86.1. It also gave an IC50 (Leishmania infantum) of over 100 µM and an IC50 (Plasmodium falciparum [5]) of 2.8 µM.

For `Cc1c(/C=N/NC(=O)c2ccccc2)[n+]([O-])c2ccccc2[n+]1[O-]`, the CC50 at 48 h [1] was 40.7 µM, the IC50 (Plasmodium falciparum [2]) was 55.7 µM and the selectivity ratio [3] was 0.68. For the same compound, the selectivity ratio [4] was 1.11, the IC50 (Leishmania infantum) was 59.1 µM and the IC50 (Plasmodium falciparum [5]) was 36.5 µM.
